Like-named read-outs stand apart in the source and are kept apart here.
What was measured:
[1] = test system: cocklebur; test: Test B pre-/postemergence herbicide test; type: in vivo, Xanthium strumarium; settings: Xanthium strumarium; for pest or weed control at 125 g/ha: 125 g ai/ha; for pest or weed control at 500 g/ha: 500 g ai/ha
Procedure, shortened: (§1)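 Flooded paddy rice and barnyardgrass were treated at the 2-leaf stage; upland plantings received compound either on sown seed or on 1- to 4-leaf seedlings. All were kept 13–15 days in a greenhouse and scored visually, 0–100, relative to untreated plants.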

[2] = test system: Surinam grass; test: Test B pre-/postemergence herbicide test; type: in vivo, Urochloa decumbens; settings: Urochloa decumbens; for pest or weed control at 125 g/ha: 125 g ai/ha; for pest or weed control at 500 g/ha: 500 g ai/ha
Procedure, shortened: (§2)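 Pre: seeds sown, then sprayed. Post: 1–4-leaf plants (2–18 cm) sprayed at the same time. Paddy: flooded, treated at 2-leaf stage. Formulation: non-phytotoxic solvent with surfactant. Greenhouse 13–15 days; visual 0–100 score relative to controls.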

[3] = test system: small flower umbrella sedge; test: Test B flooded paddy test; type: in vivo, Cyperus difformis; settings: Cyperus difformis, 336 h, 1000 g ai/ha, scale 0 to 100 (0 no effect, 100 complete control), read-out: Sedge, Umbrella plant response rating
Procedure, shortened: (§3)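 After treating 2-leaf paddy plants or 2–18 cm postemergence plants (1 to 4 leaves) with formulated chemical, researchers kept them in a greenhouse for 13–15 days. Effects were judged visually versus controls: 0 indicates none, 100 total control.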

[4] = test system: pigweed; test: Test B pre-/postemergence herbicide test; type: in vivo, Amaranthus retroflexus; settings: Amaranthus retroflexus, 336 h; for pest or weed control at 125 g/ha: 125 g ai/ha; for pest or weed control at 500 g/ha: 500 g ai/ha
Procedure, shortened: as §2

[5] = test system: large crabgrass; test: Test B pre-/postemergence herbicide test; type: in vivo, Digitaria sanguinalis; settings: Digitaria sanguinalis; for pest or weed control at 125 g/ha: 125 g ai/ha; for pest or weed control at 500 g/ha: 500 g ai/ha
Procedure, shortened: as §2

[6] = test system: morningglory; test: Test B pre-/postemergence herbicide test; type: in vivo, Ipomoea coccinea; settings: Ipomoea, 336 h; for pest or weed control at 125 g/ha: 125 g ai/ha; for pest or weed control at 500 g/ha: 500 g ai/ha
Procedure, shortened: as §1

[7] = test system: giant foxtail; test: Test B pre-/postemergence herbicide test; type: in vivo, Setaria faberi; settings: Setaria faberi, 336 h; for pest or weed control at 125 g/ha: 125 g ai/ha; for pest or weed control at 500 g/ha: 500 g ai/ha
Procedure, shortened: as §2

[8] = test system: wild oat; test: Test B postemergence herbicide test; type: in vivo, Avena fatua; settings: Avena fatua, post-emergence, 336 h, postemergence, visual rating, scale 0 (no effect) to 100 (complete control), read-out: Oat, Wild plant response rating
Procedure, shortened: (§4)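 Formulated test chemicals went onto postemergence plants measuring 2 to 18 cm, at one to four leaves. For the paddy assay, species had reached two leaves. Scoring took place 13–15 days later by eye, relative to untreated plants, using 0 for no effect up to 100 for full control.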

[9] = test system: wheat; test: Test B postemergence herbicide test; type: in vivo, Triticum aestivum; settings: Triticum aestivum, post-emergence, 336 h, postemergence, visual rating, scale 0 (no effect) to 100 (complete control), read-out: Wheat plant response rating
Procedure, shortened: as §4

[10] = test system: barnyardgrass; test: Test B flooded paddy test; type: in vivo, Echinochloa crus-galli; settings: Echinochloa crus-galli, 336 h, 1000 g ai/ha, scale 0 to 100 (0 no effect, 100 complete control), read-out: Barnyardgrass plant response rating
Procedure, shortened: as §3

[11] = test system: rice; test: Test B flooded paddy test; type: in vivo, Oryza sativa; settings: Oryza sativa, 336 h, 1000 g ai/ha, scale 0 to 100 (0 no effect, 100 complete control), read-out: Rice plant response rating
Procedure, shortened: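 Plants grow to 1- to 4-leaf stage (2–18 cm) for postemergence spraying, or to 2-leaf stage for the paddy test. Formulated compound is applied. Greenhouse holding lasts 13–15 days. Response is scored visually relative to controls, 0 no effect to 100 complete control; a dash means no result.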

[12] = test system: velvetleaf; test: Test B pre-/postemergence herbicide test; type: in vivo, Abutilon theophrasti; settings: Abutilon theophrasti, 336 h; for pest or weed control at 125 g/ha: 125 g ai/ha; for pest or weed control at 500 g/ha: 500 g ai/ha
Procedure, shortened: as §2

[13] = test system: blackgrass; test: Test B postemergence herbicide test; type: in vivo, Alopecurus myosuroides; settings: Alopecurus myosuroides, post-emergence, 336 h, postemergence, visual rating, scale 0 (no effect) to 100 (complete control), read-out: Blackgrass plant response rating
Procedure, shortened: as §3

[14] = test system: corn; test: Test B pre-/postemergence herbicide test; type: in vivo, Zea mays; settings: Zea mays; for plant injury at 125 g/ha: 125 g ai/ha
Procedure, shortened: as §2

[15] = test system: lambsquarters; test: Test B pre-/postemergence herbicide test; type: in vivo, Chenopodium album; settings: Chenopodium album, 336 h; for pest or weed control at 125 g/ha: 125 g ai/ha; for pest or weed control at 500 g/ha: 500 g ai/ha
Procedure, shortened: as §2

[16] = post-emergence, postemergence, visual rating, scale 0 (no effect) to 100 (complete control), read-out: Cocklebur plant response rating
[17] = post-emergence, postemergence, visual rating, scale 0 (no effect) to 100 (complete control), read-out: Surinam Grass plant response rating
[18] = post-emergence, postemergence, visual rating, scale 0 (no effect) to 100 (complete control), read-out: Pigweed plant response rating
[19] = post-emergence, postemergence, visual rating, scale 0 (no effect) to 100 (complete control), read-out: Crabgrass, Large plant response rating
[20] = post-emergence, postemergence, visual rating, scale 0 (no effect) to 100 (complete control), read-out: Morningglory plant response rating
[21] = post-emergence, postemergence, visual rating, scale 0 (no effect) to 100 (complete control), read-out: Foxtail, Giant plant response rating
[22] = post-emergence, postemergence, visual rating, scale 0 (no effect) to 100 (complete control), read-out: Velvetleaf plant response rating
[23] = post-emergence, postemergence, visual rating, scale 0 (no effect) to 100 (complete control), read-out: Lambsquarters plant response rating

For CCn1nc(C(C)(C)C)cc1C(=O)Nc1ccc(F)c(C(=O)N(C)C)c1 [Compound 236, N-[3-[(dimethylamino)carbonyl]-4-fluorophenyl]-3-(1,1-dimethylethyl)-1-ethyl-1H-pyrazole-5-carboxamide], the pest or weed control at 125 g/ha [1, 16] was 20%, the pest or weed control at 500 g/ha [1, 16] was 40% and the pest or weed control at 125 g/ha ([1]; pre-emergence, 0 = no effect, 100 = complete control, read-out: Cocklebur plant response rating (0 to 100 scale)) was 0%. The pest or weed control at 500 g/ha ([1]; pre-emergence, visual rating, 0 = no effect, 100 = complete control, read-out: Plant response rating, Cocklebur) was 20%, the pest or weed control at 125 g/ha [2, 17] was 0% and the pest or weed control at 500 g/ha [2, 17] was 20%. For the same compound, the pest or weed control at 125 g/ha ([2]; pre-emergence, 0 = no effect, 100 = complete control, read-out: Surinam Grass plant response rating (0 to 100 scale)) was 20%, the pest or weed control at 500 g/ha ([2]; pre-emergence, visual rating, 0 = no effect, 100 = complete control, read-out: Plant response rating, Surinam Grass) was 60% and the pest or weed control at 1000 g/ha [3] was 80%. The pest or weed control at 125 g/ha [4, 18] was 60%, the pest or weed control at 500 g/ha [4, 18] was 70% and the pest or weed control at 125 g/ha ([4]; pre-emergence, 0 = no effect, 100 = complete control, read-out: Pigweed plant response rating (0 to 100 scale)) was 30%. It also gave a pest or weed control at 500 g/ha ([4]; pre-emergence, visual rating, 0 = no effect, 100 = complete control, read-out: Plant response rating, Pigweed) of 90%, a pest or weed control at 125 g/ha [5, 19] of 0% and a pest or weed control at 500 g/ha [5, 19] of 20%. For the same compound, the pest or weed control at 125 g/ha ([5]; pre-emergence, 0 = no effect, 100 = complete control, read-out: Crabgrass, Large plant response rating (0 to 100 scale)) was 30%, the pest or weed control at 500 g/ha ([5]; pre-emergence, visual rating, 0 = no effect, 100 = complete control, read-out: Plant response rating, Crabgrass, Large) was 70% and the pest or weed control at 125 g/ha [6, 20] was 10%. The pest or weed control at 500 g/ha [6, 20] was 60%, the pest or weed control at 125 g/ha ([6]; pre-emergence, 0 = no effect, 100 = complete control, read-out: Morningglory plant response rating (0 to 100 scale)) was 0% and the pest or weed control at 500 g/ha ([6]; pre-emergence, visual rating, 0 = no effect, 100 = complete control, read-out: Plant response rating, Morningglory) was 20%. It also gave a pest or weed control at 125 g/ha [7, 21] of 10%, a pest or weed control at 500 g/ha [7, 21] of 40% and a pest or weed control at 125 g/ha ([7]; pre-emergence, 0 = no effect, 100 = complete control, read-out: Foxtail, Giant plant response rating (0 to 100 scale)) of 10%. It also gave a pest or weed control at 500 g/ha ([7]; pre-emergence, visual rating, 0 = no effect, 100 = complete control, read-out: Plant response rating, Foxtail, Giant) of 50%, a pest or weed control at 125 g/ha ([8]; 125 g ai/ha) of 20% and a pest or weed control at 500 g/ha ([8]; 500 g ai/ha) of 20%. For the same compound, the plant injury at 125 g/ha ([9]; 125 g ai/ha) was 10%, the plant injury at 500 g/ha ([9]; 500 g ai/ha) was 20% and the pest or weed control at 1000 g/ha [10] was 80%. It also gave a plant injury at 1000 g/ha [11] of 70%, a pest or weed control at 125 g/ha [12, 22] of 20% and a pest or weed control at 500 g/ha [12, 22] of 50%. For the same compound, the pest or weed control at 125 g/ha ([12]; pre-emergence, 0 = no effect, 100 = complete control, read-out: Velvetleaf plant response rating (0 to 100 scale)) was 20%, the pest or weed control at 500 g/ha ([12]; pre-emergence, visual rating, 0 = no effect, 100 = complete control, read-out: Plant response rating, Velvetleaf) was 80% and the pest or weed control at 125 g/ha ([13]; 125 g ai/ha) was 0%. It also gave a pest or weed control at 500 g/ha ([13]; 500 g ai/ha) of 10%, a plant injury at 125 g/ha ([14]; post-emergence, postemergence, visual rating, scale 0 (no effect) to 100 (complete control), read-out: Corn plant response rating) of 20% and a plant injury at 500 g/ha ([14]; post-emergence, postemergence, 500 g ai/ha, visual rating, scale 0 (no effect) to 100 (complete control), read-out: Corn plant response rating) of 40%. For the same compound, the plant injury at 125 g/ha ([14]; pre-emergence, 0 = no effect, 100 = complete control, read-out: Corn plant response rating (0 to 100 scale)) was 0%, the Corn plant response rating (crop injury, 0 = no effect, 100 = complete kill) at 500 g/ha ([14]; pre-emergence, 500 g ai/ha, visual rating, 0 = no effect, 100 = complete control) was 10% and the pest or weed control at 125 g/ha [15, 23] was 60%. The pest or weed control at 500 g/ha [15, 23] was 70%, the pest or weed control at 125 g/ha ([15]; pre-emergence, 0 = no effect, 100 = complete control, read-out: Lambsquarters plant response rating (0 to 100 scale)) was 50% and the pest or weed control at 500 g/ha ([15]; pre-emergence, visual rating, 0 = no effect, 100 = complete control, read-out: Plant response rating, Lambsquarters) was 100%.

— patent US20060069132A1, “Azolecarboxamide herbicides” (priority 2004, published 2006)
